Laboratory results published in patent publication US10584124B2, “Crystalline forms” (Array BioPharma Inc., priority 2017, dated 2020).

Legend:
[1] = Stability screening of freebase and selected salts of Formula I, 40° C. and 75% RH, weekly HPLC over 4 weeks; conditions: for Absolute % change: 40° C. and 75% RH, T = 0 to 4 weeks; for Stability, HPLC analysis, T = 1 week / Stability, HPLC analysis, T = 2 weeks / Stability, HPLC analysis, T = 3 weeks / Stability, HPLC analysis, T = 4 weeks / Stability, HPLC analysis, T = 0: stored at 40° C. and 75% RH
[2] = Solubility test of the HBr salt of the compound of Formula I; format: physicochemical; conditions: for Appearance at 25° C. after 2 h / Solids dissolve at 65° C.?: HBr salt; for Appearance at 25° C. after 2 h: 10-20 mg in 1 mL; for Solids dissolve at 65° C.?: 65° C. for 3 hours
[3] = Isothermic (25° C.) DVS analysis of salts of the compound of Formula I; format: physicochemical
Excerpt: (FIG. 16D). […] Some hysteresis was observed. […] (FIG. 16C). […] (FIG. 16D).
(FIG. 18A). […] (FIG. 18B). […] Some hysteresis was observed. […] An overlay of FTIR spectra of the L- and D-malic acid salts is shown in FIG. 18F. ^1H NMR spectra of the L- and D-malic salts in DMSO-d^6 are shown in FIG. 18G-18H, respectively.

[4] = Primary salt screen of the compound of Formula II: XRPD post-cycling and post-stability (40° C., 75% RH overnight); format: physicochemical; conditions: compound of Formula II + the acid given as label; for XRPD post-cycling: cycled RT/40° C. over 24 hours; for XRPD post-stability: 40° C. and 75% RH overnight
Method: The salt screen was performed as follows. […] In cases where stock solutions could not be attained, the acid was added neat to the solution of the compound of Formula II.
The samples were then temperature cycled between ambient (RT) and 40° C. in 4-hour cycles over 24 hours. Each mixture was filtered and isolated solids were analyzed (wet) by XRPD to determine crystallinity and form. Samples in which solid was not observed were stored uncapped to allow solvent evaporation. The remaining samples were placed in an oven at 40° C. and 75% RH overnight. The samples were then reanalyzed by XRPD to determine any changes in form or crystallinity. The observations and results, including the different diffractogram patterns observed during the screen, are shown in Tables 29-53, below, and FIGS. 24A-24B through 47A-47B.

[5] = Solubility screening of the compound of Formula IV (freebase) in solvent mixtures; format: physicochemical; conditions: approximately 25° C.

For `COc1ccc(CN2CCN(c3ccc(-c4cc(-c5cnn(C)c5)cn5ncc(C#N)c45)cn3)CC2)cn1` [Freebase I], the Absolute % change [1] was 0.4%, the “Stability, HPLC analysis, T = 1 week” value [1] was 97.3% and the “Stability, HPLC analysis, T = 2 weeks” value [1] was 97.1%. The “Stability, HPLC analysis, T = 3 weeks” value [1] was 97.1%, the “Stability, HPLC analysis, T = 4 weeks” value [1] was 96.9% and the “Stability, HPLC analysis, T = 0” value [1] was 97.3%.
For `Br.COc1ccc(CN2CCN(c3ccc(-c4cc(-c5cnn(C)c5)cn5ncc(C#N)c45)cn3)CC2)cn1` [HBr salt], the solubility ([2]; DMSO) was 1.95 mg/mL, the “Appearance at 25° C. after 2 h” value ([2]; solvent 2-methyl THF) was “Solids” and the “Appearance at 25° C. after 2 h” value ([2]; solvent ACN) was “Solids”. For the same molecule, the “Appearance at 25° C. after 2 h” value ([2]; solvent Acetone) was “Solids”, the “Appearance at 25° C. after 2 h” value ([2]; solvent DCE) was “Solids” and the “Appearance at 25° C. after 2 h” value ([2]; solvent DCM) was “Solids”. For the same molecule, the “Appearance at 25° C. after 2 h” value ([2]; solvent DMSO) was “Solids”, the “Appearance at 25° C. after 2 h” value ([2]; solvent EtOAc) was “Solids” and the “Appearance at 25° C. after 2 h” value ([2]; solvent EtOH) was “Solids”. For the same molecule, the “Appearance at 25° C. after 2 h” value ([2]; solvent IPA) was “Solids”, the “Appearance at 25° C. after 2 h” value ([2]; solvent MEK) was “Solids” and the “Appearance at 25° C. after 2 h” value ([2]; solvent MTBE) was “Solids”. The “Appearance at 25° C. after 2 h” value ([2]; solvent MeOH) was “Solids”, the “Appearance at 25° C. after 2 h” value ([2]; solvent THF) was “Solids” and the “Appearance at 25° C. after 2 h” value ([2]; solvent iPAc) was “Solids”. The “Appearance at 25° C. after 2 h” value ([2]; solvent water) was “Solids”, the “Solids dissolve at 65° C.?” value ([2]; solvent 2-methyl THF) was “No” and the “Solids dissolve at 65° C.?” value ([2]; solvent ACN) was “No”. For the same molecule, the “Solids dissolve at 65° C.?” value ([2]; solvent Acetone) was “No”, the “Solids dissolve at 65° C.?” value ([2]; solvent DCE) was “No” and the “Solids dissolve at 65° C.?” value ([2]; solvent DCM) was “No”. The “Solids dissolve at 65° C.?” value ([2]; solvent DMSO) was “No”, the “Solids dissolve at 65° C.?” value ([2]; solvent EtOAc) was “No” and the “Solids dissolve at 65° C.?” value ([2]; solvent EtOH) was “No”. For the same molecule, the “Solids dissolve at 65° C.?” value ([2]; solvent IPA) was “No”, the “Solids dissolve at 65° C.?” value ([2]; solvent MEK) was “No” and the “Solids dissolve at 65° C.?” value ([2]; solvent MTBE) was “No”. The “Solids dissolve at 65° C.?” value ([2]; solvent MeOH) was “No”, the “Solids dissolve at 65° C.?” value ([2]; solvent THF) was “No” and the “Solids dissolve at 65° C.?” value ([2]; solvent iPAc) was “No”. For the same molecule, the “Solids dissolve at 65° C.?” value ([2]; solvent water) was “No”, the “Solubility (in words)” value ([2]; solvent systems examined) was “low solubility” and the “Solids upon heating to 65° C.” value ([2]; solvent systems examined, 65° C.) was “did not dissolve”.
In the case of `COc1ccc(CN2CCN(c3ccc(-c4cc(-c5cnn(C)c5)cn5ncc(C#N)c45)cn3)CC2)cn1.Cl` [HCl salt], the “Mass gain by DVS” value ([3]; 80% relative humidity, 25° C.) is reported as “approximately 5%”, the “Hygroscopicity by DVS (in words)” value ([3]; isothermic 25° C.) is reported as “hygroscopic” and the “Deliquescence upon removal from the DVS chamber” value ([3]; sample remained a free-flowing powder) is reported as “no observable deliquescence”. For the same molecule, the Absolute % change [1] was 0.0%, the “Stability, HPLC analysis, T = 1 week” value [1] was 99.3% and the “Stability, HPLC analysis, T = 2 weeks” value [1] was 99.3%. The “Stability, HPLC analysis, T = 3 weeks” value [1] was 99.3%, the “Stability, HPLC analysis, T = 4 weeks” value [1] was 99.3% and the “Stability, HPLC analysis, T = 0” value [1] was 99.3%.
With `O=P(O)(O)O` [Phosphoric acid] the XRPD post-cycling ([4]; Acetone/water (10%)) was “Form 9”, the XRPD post-cycling ([4]; Dioxane/water (10%)) was “No solid” and the XRPD post-cycling ([4]; IPA/water (10%)) was “Form 10”. The XRPD post-cycling ([4]; MeCN/water (20%)) was “No solid”, the XRPD post-cycling ([4]; THF/water (1%)) was “Amorphous” and the XRPD post-stability ([4]; from Dioxane/water (10%)) was “No solid”. The XRPD post-stability ([4]; from EtOH/water (10%)) was “Form 10”, the XRPD post-stability ([4]; from IPA/water (10%)) was “Form 10” and the XRPD post-stability ([4]; from MeCN/water (20%)) was “No solid”. The XRPD post-stability ([4]; from THF/water (1%)) was “Form 10”.
In the case of `O=S(=O)(O)O` [Sulfuric acid], the XRPD post-cycling ([4]; Acetone/water (10%)) is reported as “No solid”, the XRPD post-cycling ([4]; Dioxane/water (10%)) is reported as “No solid” and the XRPD post-cycling ([4]; EtOH/water (10%)) is reported as “No solid”. For the same molecule, the XRPD post-cycling ([4]; IPA/water (10%)) was “Form 3”, the XRPD post-cycling ([4]; MeCN/water (20%)) was “No solid” and the XRPD post-cycling ([4]; THF/water (1%)) was “No solid”. For the same molecule, the XRPD post-stability ([4]; from Acetone/water (10%)) was “No solid”, the XRPD post-stability ([4]; from Dioxane/water (10%)) was “No solid” and the XRPD post-stability ([4]; from EtOH/water (10%)) was “No solid”. For the same molecule, the XRPD post-stability ([4]; from IPA/water (10%)) was “Form 5”, the XRPD post-stability ([4]; from MeCN/water (20%)) was “No solid” and the XRPD post-stability ([4]; from THF/water (1%)) was “No solid”.
With `CC(C)(O)COc1cc(-c2ccc(N3CCC(O)(Cc4ccccn4)CC3)nc2)c2c(C#N)cnn2c1` [compound of Formula IV, 6-(2-hydroxy-2-methylpropoxy)-4-(6-(4-hydroxy-4-(pyridin-2-ylmethyl)piperidin-1-yl)pyridin-3-yl)pyrazolo[1,5-a]pyridine-3-carbonitrile] the solubility ([5]; Water) was 0.007 mg/mL, the solubility ([5]; aqueous with cosolvent or surfactant or cyclodextrin, Acetone:water (1:1)) was 45.8 mg/mL and the solubility ([5]; aqueous with cosolvent or surfactant or cyclodextrin, EtOH:water (1:1)) was 51 mg/mL. For the same molecule, the solubility ([5]; organic solvent or mixture, ACN) was 21.2 mg/mL, the solubility ([5]; organic solvent or mixture, Acetone) was 42.9 mg/mL and the solubility ([5]; organic solvent or mixture, Acetone:heptane (1:1)) was 6.1 mg/mL. It also gave a solubility ([5]; organic solvent or mixture, Butanol) of 16.6 mg/mL, a solubility ([5]; organic solvent or mixture, Chloroform) greater than 59 mg/mL and a solubility ([5]; organic solvent or mixture, Chloroform:heptane (1:1)) of 11.7 mg/mL. For the same molecule, the solubility ([5]; organic solvent or mixture, DCM) was greater than 70 mg/mL, the solubility ([5]; organic solvent or mixture, EtOH:water (90:10)) was 55 mg/mL and the solubility ([5]; organic solvent or mixture, Ethanol) was 5.2 mg/mL. For the same molecule, the solubility ([5]; organic solvent or mixture, Ethyl acetate) was 21 mg/mL, the solubility ([5]; organic solvent or mixture, IPA) was 7 mg/mL and the solubility ([5]; organic solvent or mixture, MEK) was 30.7 mg/mL. The solubility ([5]; organic solvent or mixture, MTBE) was 5.5 mg/mL, the solubility ([5]; organic solvent or mixture, Methanol) was greater than 74 mg/mL and the solubility ([5]; organic solvent or mixture, THF) was greater than 37 mg/mL. For the same molecule, the solubility ([5]; organic solvent or mixture, THF:heptane (30:70)) was 0.6 mg/mL and the solubility ([5]; organic solvent or mixture, p-dioxane) was greater than 62 mg/mL.
For `Cc1ccc(S(=O)(=O)O)cc1` [p-Toluene sulfonic acid], the XRPD post-cycling ([4]; Acetone/water (10%)) was “Form 4”, the XRPD post-cycling ([4]; Dioxane/water (10%)) was “No solid” and the XRPD post-cycling ([4]; EtOH/water (10%)) was “Amorphous”. For the same molecule, the XRPD post-cycling ([4]; IPA/water (10%)) was “Amorphous”, the XRPD post-cycling ([4]; MeCN/water (20%)) was “No solid” and the XRPD post-stability ([4]; from Acetone/water (10%)) was “Form 4”. For the same molecule, the XRPD post-stability ([4]; from Dioxane/water (10%)) was “No solid”, the XRPD post-stability ([4]; from EtOH/water (10%)) was “Amorphous” and the XRPD post-stability ([4]; from IPA/water (10%)) was “Form 4”. For the same molecule, the XRPD post-stability ([4]; from MeCN/water (20%)) was “No solid” and the XRPD post-stability ([4]; from THF/water (1%)) was “Form 4”.
